{"source": "patent US20250368640A1", "about": "(BIOFRONT LTD, priority 2022, published 2025)", "key": {"MEK 1/2": {"tested_on": "MEK 1/2", "assay": "MEK 1/2 degradation assay (western blot)", "format": "cell-based, human", "conditions": "protein degradation, MV-411 or IMR32 cells", "protocol": "MEK 1/2 Degradation Assay\n(§1) MV-411 cells were cultured with medium (IMDM) and IMR32 cells were cultured with medium (MEM) prior to use. Cells were then incubated with a variety of concentrations of compound. After incubation, the cells were collected and lysed. The protein concentration was determined by BCA protein assay kit from Thermo (23227). The […] protein level was determined by western blots, using anti-human MEK 1/2 polyclonal antibody from CST (9122S). Proteins were loaded into each well of the pre-casting gels and subjected to electrophoretic separation by SDS-PAGE. The protein resolved by SDS-PAGE were transferred to PVDF, blocked by 5% skim milk, and probed with anti-human MEK1/2 antibody or β-actin antibody from CST (3700S) and COX IV antibody from CST (4850S), using standard western blotting procedure."}, "Aurora A [1]": {"target": "T1, Aurora A (Homo sapiens (Human), UniProt O14965)", "T1 sequence (O14965 whole entry)": "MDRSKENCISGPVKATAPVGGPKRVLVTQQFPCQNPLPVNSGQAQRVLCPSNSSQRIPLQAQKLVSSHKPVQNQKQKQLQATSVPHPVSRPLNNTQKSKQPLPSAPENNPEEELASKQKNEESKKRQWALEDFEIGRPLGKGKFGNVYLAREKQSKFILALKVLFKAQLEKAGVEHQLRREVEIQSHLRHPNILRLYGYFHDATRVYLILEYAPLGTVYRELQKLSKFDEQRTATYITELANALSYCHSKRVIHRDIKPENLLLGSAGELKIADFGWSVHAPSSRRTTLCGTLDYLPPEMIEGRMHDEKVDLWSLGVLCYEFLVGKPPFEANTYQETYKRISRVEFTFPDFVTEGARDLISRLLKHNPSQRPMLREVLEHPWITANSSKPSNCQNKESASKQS", "assay": "Aurora A enzyme inhibition assay", "format": "biochemical", "protocol": "Aurora A Enzyme Inhibition Assay\n(§2) The compound was dissolved in 100% DMSO at the concentration of 10 mM. The Aurora A protein was purchased from Carna (05-101). 10 μL per well of 2.5×Aurora A protein was added to assay plate containing the test compound, centrifuged at 1000 rpm for 1 minute, and then incubated at 25° C. for 10 minutes. Peptide 21 was purchased from GL Biochem (116370) and ATP was purchased from Promega (V9102). The two were added 15 μL per well mixture of 1.67× peptide 21 (final conc. is 3 μM) and ATP (final conc. is 14.58 μM), centrifuged at 1000 rpm for 1 minute, then incubated at 25° C. for 40 minutes. Then added 30 μL of stop buffer (100 mM HEPES pH7.5, 0.015% Brij-35, 0.2% Coating Reagent 3, 50 mM EDTA) to the assay plate and centrifuged at 1000 rpm for 1 minute. the product was determined. Based on the results, the IC50 value of the compound was calculated."}, "Aurora A [2]": {"target": "T1, Aurora A", "assay": "Aurora A degradation assay (western blot)", "format": "cell-based", "conditions": "protein degradation, IMR32, Huh7 or HL-60 cells", "protocol": "Aurora A Degradation Assay\nIMR32 cells were cultured with medium (MEM), Huh7 cells were cultured with medium (DMEM) and HL-60 cells were culture with medium (IMDM) prior to use. Cells were then incubated with a variety of concentrations of compound. After incubation, the cells were collected and lysed. The protein concentration was determined by BCA protein assay kit from Thermo (23227). The AURKA protein level was determined by western blots, using anti-human AURKA monoclonal antibody from CST (14475S). Proteins were loaded into each well of the pre-casting gels and subjected to electrophoretic separation by SDS-PAGE. The protein resolved by SDS-PAGE were transferred to PVDF, blocked by 5% skim milk, and probed with anti-human AURKA antibody or β-actin antibody from CST (3700S) or COX IV antibody from CST (4850S), using standard western blotting procedure."}, "HPK1 [3]": {"target": "T2, HPK1 (Homo sapiens (Human), UniProt Q92918)", "assay": "HPK1 degradation assay (western blot, human PBMC)", "format": "cell-based", "conditions": "protein degradation, human PBMC", "protocol": "Frozen human PBMC were purchased from Shanghai OribioTech and recovered with culture medium (RMPI1640) prior to use. The cells were then incubated with a variety of concentrations of compound. After incubation, the cells were collected and lysed. The protein concentration was determined by BCA protein assay kit from Thermo (23227). The HPK1 protein level was determined by western blots, using anti-human HPK1 polyclonal antibody from CST (4472S). Proteins were loaded into each well of the pre-casting gels and subjected to electrophoretic separation by SDS-PAGE. The protein resolved by SDS-PAGE were transferred to PVDF, blocked by 5% skim milk, and probed with anti-human HPK1 antibody or β-actin antibody from CST (3700S), using standard western blotting procedure."}, "HPK1 [4]": {"target": "T2, HPK1", "assay": "HPK1 enzyme inhibition assay (ADP-Glo)", "format": "biochemical", "protocol": "HPK1 Enzyme Inhibition Assay\nThe compound was dissolved in 100% DMSO at the concentration of 10 mM. The HPK1 protein was purchased from Signal Chem (M23-11G-10). 2.5 μL per well of 2×HPK1 protein was added to assay plate containing the test compound, centrifuged at 1500 rpm for 1 minute, and then incubated at 25° C. for 60 minutes. MBP protein was purchased from Signal Chem (M42-51N) and ATP was purchased from Promega (V9102). The two were added 2.5 μL per well mixture of 2×MBP (0.2 ug/ul) and ATP (20 μM), centrifuged at 1500 rpm for 1 minute, then incubated at 25° C. for 60 minutes. Then added 5 μL of ADP-Glo from Promega (V9102) to the assay plate and depleted the unconsumed ATP for 60 minutes. Then centrifuged at 1500 rpm for 1 minute and incubated at 25° C. for 60 minutes. Finally, 10 μL of the kinase assay reagent from Promega (V9102) was added to the assay plate to convert ADP to ATP, centrifuged at 1500 rpm for 1 minute, incubate at 25° C. for 40 minutes. After 40 minutes incubation, the […] was determined. Based on the results, the IC50 value of the compound was calculated."}, "FLT3-ITD": {"target": "FLT3-ITD (Homo sapiens, UniProt P36888)", "sequence (P36888 whole entry, looked up, change not shown)": "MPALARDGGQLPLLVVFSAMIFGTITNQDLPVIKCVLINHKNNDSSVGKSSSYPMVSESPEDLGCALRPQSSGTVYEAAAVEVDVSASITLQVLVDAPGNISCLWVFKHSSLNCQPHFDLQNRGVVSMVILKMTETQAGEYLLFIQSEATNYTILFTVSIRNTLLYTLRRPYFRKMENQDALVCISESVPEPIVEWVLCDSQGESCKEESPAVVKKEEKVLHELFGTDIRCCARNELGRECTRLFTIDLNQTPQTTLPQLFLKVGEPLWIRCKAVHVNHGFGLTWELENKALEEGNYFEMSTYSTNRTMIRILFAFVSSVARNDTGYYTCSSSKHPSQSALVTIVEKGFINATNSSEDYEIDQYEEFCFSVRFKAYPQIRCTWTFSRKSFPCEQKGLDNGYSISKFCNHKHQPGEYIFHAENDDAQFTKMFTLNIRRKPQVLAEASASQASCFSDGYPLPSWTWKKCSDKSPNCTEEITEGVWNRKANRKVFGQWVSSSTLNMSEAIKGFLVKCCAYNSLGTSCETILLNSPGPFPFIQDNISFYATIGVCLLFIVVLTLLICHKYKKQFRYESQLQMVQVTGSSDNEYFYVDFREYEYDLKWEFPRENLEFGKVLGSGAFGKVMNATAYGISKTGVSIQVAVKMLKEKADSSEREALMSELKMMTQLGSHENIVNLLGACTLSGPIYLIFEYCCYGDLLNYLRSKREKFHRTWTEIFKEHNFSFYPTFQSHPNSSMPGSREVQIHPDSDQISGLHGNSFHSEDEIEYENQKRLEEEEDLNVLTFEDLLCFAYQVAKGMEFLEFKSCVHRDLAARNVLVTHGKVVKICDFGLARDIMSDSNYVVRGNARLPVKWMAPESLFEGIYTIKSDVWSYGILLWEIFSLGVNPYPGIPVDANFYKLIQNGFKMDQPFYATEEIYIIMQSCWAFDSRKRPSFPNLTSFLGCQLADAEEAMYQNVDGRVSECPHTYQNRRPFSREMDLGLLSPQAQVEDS", "assay": "FLT3-ITD enzyme inhibition assay", "format": "biochemical", "conditions": "enzyme inhibition", "protocol": "FLT3-ITD Enzyme Inhibition Assay\nas §2, with “FLT3-ITD” for “Aurora A”, “Invitrogen (PV6191).” for “Carna (05-101).”, “2.5×FLT3-ITD” for “2.5×Aurora A”, “2” for “21”, “(112394)” for “(116370)”, “97.2” for “14.58”"}, "FLT3": {"tested_on": "FLT3", "assay": "FLT3 degradation assay (western blot, MV-411 cells)", "format": "cell-based, human", "conditions": "protein degradation, class symbol, read-out: FLT3 DC50 (nM)/Dmax (%)", "protocol": "as §1, with “(IMDM)” for “(IMDM) and IMR32 cells were cultured with medium (MEM)”, “FLT3 monoclonal” for “MEK 1/2 polyclonal”, “(3462S).” for “(9122S).”, “FLT3” for “MEK1/2”, “-actin” for “β-actin”, “(3700S),” for “(3700S) and COX IV antibody from CST (4850S),”"}}}
{"compound": "CCc1c[nH]c2ncc(-c3cccc(N4CCCN(CCN5CCN(c6cc7c(cc6F)C(=O)N(C6CCC(=O)NC6=O)C7)CC5)C4=O)c3)c(Cl)c12", "note": "(stereo not shown) [Example 7, 3-(5-(4-(2-(3-(3-(4-chloro-3-ethyl-1H-pyrrolo [2,3-b]pyridin-5-yl)phenyl)-2-oxotetrahydropyrimidin-1 (2H)-yl)ethyl)piperazin-1-yl)-6-fluoro-1-oxoisoindolin-2-yl) piperidine-2,6-dione]", "values": [{"measurement": "MEK 1/2 Dmax", "setting": "MEK 1/2", "result": 37, "unit": "%"}, {"measurement": "DC50", "setting": "MEK 1/2; read-out: MEK 1/2 DC50", "result": 264, "unit": "nM"}, {"measurement": "IC50", "setting": "Aurora A [1]", "result": 10.6, "unit": "nM"}, {"measurement": "Aurora A Dmax", "setting": "Aurora A [2]", "result": 50, "unit": "%"}, {"measurement": "DC50", "setting": "Aurora A [2]; read-out: Aurora A DC50", "result": 5, "unit": "nM"}, {"measurement": "HPK1 Dmax", "setting": "HPK1 [3]", "result": 60, "unit": "%"}, {"measurement": "DC50", "setting": "HPK1 [3]; read-out: HPK1 DC50", "result": 12, "unit": "nM"}, {"measurement": "IC50", "setting": "HPK1 [4]", "result": 10.5, "unit": "nM"}, {"measurement": "IC50", "setting": "FLT3-ITD", "result": 12.3, "unit": "nM"}, {"measurement": "DC50", "setting": "FLT3", "result": "> 10000", "unit": "nM"}]}
